Values of other authors in patent publication US11324822B2, “Combination of HDAC inhibitor and anti-PD-1 antibody for treatment of cancer” (priority 2015, dated 2022).

What was measured:
[1] = test system: histone acetylation; settings: following the administration of entinostat
[2] = in vivo

half-life [2]: about 100 hours
Compound: Nc1ccccc1NC(=O)c1ccc(CNC(=O)OCc2cccnc2)cc1 [Entinostat, N-(2-aminophenyl)-4-[N-(pyridine-3-yl)methoxycarbonylamino-methyl]-benzamide]
changes in histone acetylation following administration [1]: persist for several weeks
